Results taken from EP2308883A1, “New derivatives of thieno[2,3-b]pyridine and 5,6,7,8 tetrahydrothieno[2,3 b]quinoline in particular useful in the treatment of malaria” (priority 2009, dated 2011).

What was measured:
PfGSK-3 = target: T1, PfGSK-3 (Plasmodium falciparum, UniProt O77344); assay: Kinase assay with recombinant (His)6-tagged PfGSK3, GS-1 peptide and [γ-33P] ATP; assay type: biochemical; settings: for anti-PfGSK-3 IC50 values: result in words; for IC50: unit only in the introducing sentence b99, not in the table, read-out: IC50 PfGSK-3
T1 construct: His6; made in house; host or cells: Escherichia coli TOP 10
T1 sequence (O77344 1-440): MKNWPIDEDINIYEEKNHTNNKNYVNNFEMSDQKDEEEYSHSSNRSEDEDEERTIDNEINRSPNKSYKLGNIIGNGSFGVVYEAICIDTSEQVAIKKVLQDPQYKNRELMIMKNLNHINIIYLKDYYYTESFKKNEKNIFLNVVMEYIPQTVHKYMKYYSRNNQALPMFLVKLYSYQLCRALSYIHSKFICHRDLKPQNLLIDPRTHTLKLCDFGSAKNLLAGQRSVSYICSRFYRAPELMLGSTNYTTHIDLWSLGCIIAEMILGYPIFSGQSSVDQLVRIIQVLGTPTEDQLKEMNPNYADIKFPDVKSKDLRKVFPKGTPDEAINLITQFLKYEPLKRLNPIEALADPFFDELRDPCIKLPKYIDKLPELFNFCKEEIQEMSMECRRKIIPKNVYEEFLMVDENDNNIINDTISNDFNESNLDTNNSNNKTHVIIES
Protocol: Escherichia coli strain (TOP 10) containing a plasmid encoding PfGSK3 with six histidines (pBAD-Thio-TOPO, Invitrogen) were cultured into 500 ml of LB medium containing 100 µg/ml ampicillin, at 37°C, under shaking (250 rpm) until OD600 of 0.5 was reached. Expression was induced with 0.5 ml of 20% arabinose (0.02% final concentration). The culture was grown at 37°C with shaking for 4 hours. Cells were harvested by centrifugation at 9000 rpm for 10 min. The bacterial pellet was stored frozen at -80°C until further processing. For proteins extraction, pellet was resuspended in 10 ml of lysis buffer (50 mM NaH2PO4 pH 8.0, 300 mM NaCl, 10 mM imidazole) with the addition of protease inhibitors (complete EDTA-free, Roche) and lysozyme ([…] final). Cells were disrupted by sonication and the cell lysate was centrifuged at 24000 rpm for 30 min at 4°C. The recombinant PfGSK3 protein was purified by Immobilized Metal Affinity Chromatography according to a batch procedure on 1 ml of Nickel affinity resin (Ni-NTA agarose beads, Qiagen). Beads were washed four times with 10 ml of wash buffer (50 mM NaH2PO4 pH 8.0, 300 mM NaCl, 30 mM imidazole). Protein was eluted with one volume of elution buffer (50 mM NaH2PO4 pH 8.0, 300 mM NaCl, 250 mM imidazole, 10% glycerol).
(§1) Both porcine GSK3 and PfGSK3 were assayed with 40 µM GS-1 peptide, a specific GSK-3 substrate, ([…]pEDEEE, synthesized by the Peptide Synthesis Unit, Institute of Biomolecular Sciences, University of Southampton, U.K.), in buffer A (25 mM Tris-HCl pH 7.5, 10 mM MgC12, 1 mM EGTA, 1 mM DTT, 50 µg heparin/ml, 0.5 mg BSA/ml) in the presence of 15 µM [γ-^33P] ATP (3000 Ci/mmol; 1 mCi/ml) in a final volume of 30 µl. After 30 min. incubation at 30°C, 25 µl aliquots of supernatant were spotted onto 2.5 x 3 cm pieces of Whatman P81 phosphocellulose paper, and, 20 sec. later, the filters were washed five times (for at least 5 min. each time) in 1 % phosphoric acid. The wet filters were counted in the presence of 1 ml ACS (Amersham) scintillation fluid. The kinase activity was expressed in pmoles phosphate incorporated in GS-1 or in percentage of the maximal activity.

[1] = target: Mammalian GSK-3 (GSK-3α/β); assay: Kinase assay with native porcine GSK3 purified from porcine brain, GS-1 peptide and [γ-33P] ATP; assay type: biochemical; settings: for anti-mammalian GSK-3 IC50 values: result in words; for IC50: -(10) taken as no inhibition at 10, read-out: IC50 Mammalian GSK-3
Protocol: Porcine GSK3 (GSK-3α/β) was purified from porcine brain by affinity chromatography on immobilized axin according to the protocol described in Primot et al (Protein Expression and Purification 20, 394-404, 2000).
as §1

| SMILES | anti-PfGSK-3 IC50 values (PfGSK-3) | anti-mammalian GSK-3 IC50 values [1] | IC50 (PfGSK-3) | IC50 [1] |
| --- | --- | --- | --- | --- |
| N#Cc1c(N)nc2sc(C(=O)c3cccc(Cl)c3)c(N)c2c1-c1c(Cl)cccc1Cl [Compound 30, 3,6-diamino-2-(3-chlorobenzoyl)-4-(2,6-dichlorophenyl)thieno[2,3-b]pyridine-5-carbonitrile] | particularly good | do not demonstrate good |  |  |
| Cc1ccccc1-c1c(C#N)c(N)nc2sc(C#N)c(N)c12 [Compound 40, 3,6-diamino-4-(2-methylphenyl)thieno[2,3-b]pyridine-2,5-dicarbonitrile] |  |  | 510 nM | 2000 nM |
| N#Cc1c(N)nc2sc(C(=O)c3ccc(Cl)c(Cl)c3)c(N)c2c1-c1ccccc1Br [Compound 21, 3,6-diamino-4-(2-bromophenyl)-2-(3,4-dichlorobenzoyl)thieno[2,3-b]pyridine-5-carbonitrile] | particularly good | do not demonstrate good | 3800 nM | > 10000 nM |
| N#Cc1c(N)nc2sc(C(=O)c3cccc(C(F)(F)F)c3)c(N)c2c1-c1ccccc1Cl [Compound 25, 3,6-diamino-4-(2-chlorophenyl)-2-[3-(trifluoromethyl)benzoyl]thieno[2,3-b]pyridine-5-carbonitrile] | particularly good | do not demonstrate good |  |  |
| COc1cccc(C(=O)c2sc3nc(N)c(C#N)c(-c4ccccc4Cl)c3c2N)c1 [Compound 24, 3,6-diamino-4-(2-chlorophenyl)-2-(3-methoxybenzoyl)thieno[2,3-b]pyridine-5-carbonitrile] | particularly good | do not demonstrate good |  |  |
| N#Cc1c(N)nc2sc(C(=O)c3cccc(Br)c3)c(N)c2c1-c1ccccc1Cl [Compound 27, 3,6-diamino-2-(3-bromobenzoyl)-4-(2-chlorophenyl)thieno[2,3-b]pyridine-5-carbonitrile] | particularly good | do not demonstrate good |  |  |
| N#Cc1c(N)nc2sc3c(=S)[nH]cnc3c2c1-c1ccccc1Cl [Compound 47, 7-amino-9-(2-chlorophenyl)-4-thioxo-3,4-dihydropyrido[3',2':4,5]thieno[3,2-d]pyrimidine-8-carbonitrile] |  |  | 130 nM | 60 nM |
| COc1ccc(C(=O)c2sc3nc(N)c(C#N)c(-c4ccccc4I)c3c2N)cc1 [Compound 11, 3,6-diamino-4-(2-iodophenyl)-2-(4-methoxybenzoyl)thieno[2,3-b]pyridine-5-carbonitrile] | particularly good | do not demonstrate good | 1700 nM | > 10000 nM |
| N#Cc1c(N)nc2sc(C(=O)c3ccccc3)c(N)c2c1-c1ccccc1Br [Compound 18, 3,6-diamino-2-benzoyl-4-(2-bromophenyl)thieno[2,3-b]pyridine-5-carbonitrile] | particularly good | do not demonstrate good |  |  |
| COc1ccccc1-c1c(C#N)c(N)nc2sc(C(=O)c3cccc(Cl)c3)c(N)c12 [Compound 7, 3,6-diamino-2-(3-chlorobenzoyl)-4-(2-methoxyphenyl)thieno[2,3-b]pyridine-5-carbonitrile] | particularly good | do not demonstrate good |  |  |
| N#Cc1c(N)nc2sc(C(=O)c3ccc(Cl)c(Cl)c3)c(N)c2c1-c1ccccc1Cl [Compound 23, 3,6-diamino-4-(2-chlorophenyl)-2-(3,4-dichlorobenzoyl)thieno[2,3-b]pyridine-5-carbonitrile] | particularly good | do not demonstrate good |  |  |
| N#Cc1sc2nc(N)c(C#N)c(-c3cccs3)c2c1N [Compound 41, 3,6-diamino-4-(2-thienyl)thieno[2,3-b]pyridine-2,5-dicarbonitrile] |  |  | 180 nM | 2300 nM |
| Cc1ccc(C(=O)c2sc3nc(N)c(C#N)c(-c4ccccc4I)c3c2N)cc1 [Compound 12, 3,6-diamino-4-(2-iodophenyl)-2-(4-methylbenzoyl)thieno[2,3-b]pyridine-5-carbonitrile] | particularly good | do not demonstrate good |  |  |
